From article PMC5307958 (Scientific Reports, 2017)
Bridges are numbered along the chain shown (N, C = ends). Where no end group is shown, it is not given here.

Legend:
[1] = test system: BK channel; conditions: small molecule BK channel blocker; cited from earlier work
Source text: CNS pharmacological applications favor pharmaceutical agents with high affinity, specificity, amenability to large-scale synthesis and BBB permeability. Peptide drugs have the potential for high affinity and specific binding to ion channel targets, as shown by voltage-gated potassium channel (Kv) peptide toxins. In addition to natural products, phage display screens have successfully selected peptides with high target affinity. For example, a phage display screen of scorpion toxin derivatives selected a novel peptide that blocks the Kv3.1 channel in the nanomolar range[41]. Here, a phage displ ...

[2] = Blood-brain barrier crossing inferred from functional activity in the IC; assay type: in vivo, mouse; conditions: inferred from suppression of sound evoked activity after topical (dura) or systemic (0.3 mg/kg I.P.) administration
Procedure: (§1) The temperature was maintained near 25 °C.

[3] = test system: mouse inferior colliculus (auditory midbrain); assay: Sound evoked activity within excitatory receptive field (eRF), topical application on dura
[4] = test system: auditory nerve and generators caudal to the IC; assay: Auditory brainstem responses (ABR); assay type: in vivo, mouse
Procedure: as §1
ABR recordings were acquired after the mice were anesthetized with ketamine (120 mg/kg) and xylazine (10 mg/kg) I.P., and respiration was monitored throughout to determine when additional supplemental doses were needed. Body temperature was kept constant at 37 °C using a feedback controlled heating pad (Physitemp TCAT2-LV Controller, Clifton, NJ). Stimuli and recordings were generated digitally and controlled using a TDT RZ6 Multi-I/O Processor and their BioSig/SigGen software. Acoustic signals were played through a multi-field (MF1) magnetic speaker (TDT, Alachua, FL) with a total harmonic distortion < = 1% from 1 kHz to 50 kHz, centered 0° azimuth in regards to the animal at a distance of 10 cm from the ear pinna. Tone bursts were presented at frequencies of 6, 12, 16, 20, 24, and 36 kHz (3 ms duration, 1 ms rise/fall time, alternating polarity) at a rate of 29 per second, attenuated in 5 dB steps from 80 dB SPL to 15 dB below threshold or 5 dB SPL, whichever was lower. Threshold was determined by visual inspection as the lowest intensity level which produced a defined wave in both replicates. All signals were calibrated using a Larsen Davis preamplifier, model 2221, with a 1/4″ microphone and a Larson Davis CAL200 Precision Acoustic Calibrator (PCB Piezotronics, Inc., Depew, NY). ABR recordings were acquired using a TDT RA4LI low-impedance digital headstage and RA4PA Medusa preamp with the active (noninverting) electrode inserted at the vertex, the reference (inverting) electrode below the left ear, and the ground electrode below the right ear. The responses were amplified (20×), filtered (300 Hz–3 kHz), and averaged using BioSig software and the System III hardware (TDT) data-acquisition system. A total of 256 tone burst signal and 150 GIN signal recordings were replicated for each acquisition, and muscle artifacts exceeding 7 μV were rejected from the averaged response. All recordings took place in a soundproof booth lined with echo-attenuating acoustic foam. ABR waveforms were analyzed using a custom MatLab program that automatically determined peak latencies and amplitudes in combination with secondary verification by an experimenter blind to the treatment group.

[5] = cited from earlier work
Source text: A pharmacological agent must cross the BBB in order to act at CNS-located targets. […] Many ion channel-targeted peptides are regarded as having low BBB permeability due to the large difference between the lethal dose when administered peripherally versus centrally. For example, the LD50 for peripherally administered dendrotoxin is in the tens of mg/kg, while it is ten thousand fold l ...

[6] = target: T1, human BKα channel (ZERO isoform) expressed in HEK293 cells (Homo sapiens, UniProt Q12791); assay: Patch-clamp recording, inside-out patches, extracellular application; assay type: cell-based; conditions: for effect on Po (post vs. pre peptide): 500 nM linear (reduced) LS3, extracellular, any voltage, compared with 500 nM cyclic LS3
T1 construct: expressed in transfected cells; host or cells: HEK293 (ATCC), transient transfection with Lipofectamine 2000; EGFP cotransfected as a separate marker
T1 sequence (Q12791 1-1178 isoform Q12791-5): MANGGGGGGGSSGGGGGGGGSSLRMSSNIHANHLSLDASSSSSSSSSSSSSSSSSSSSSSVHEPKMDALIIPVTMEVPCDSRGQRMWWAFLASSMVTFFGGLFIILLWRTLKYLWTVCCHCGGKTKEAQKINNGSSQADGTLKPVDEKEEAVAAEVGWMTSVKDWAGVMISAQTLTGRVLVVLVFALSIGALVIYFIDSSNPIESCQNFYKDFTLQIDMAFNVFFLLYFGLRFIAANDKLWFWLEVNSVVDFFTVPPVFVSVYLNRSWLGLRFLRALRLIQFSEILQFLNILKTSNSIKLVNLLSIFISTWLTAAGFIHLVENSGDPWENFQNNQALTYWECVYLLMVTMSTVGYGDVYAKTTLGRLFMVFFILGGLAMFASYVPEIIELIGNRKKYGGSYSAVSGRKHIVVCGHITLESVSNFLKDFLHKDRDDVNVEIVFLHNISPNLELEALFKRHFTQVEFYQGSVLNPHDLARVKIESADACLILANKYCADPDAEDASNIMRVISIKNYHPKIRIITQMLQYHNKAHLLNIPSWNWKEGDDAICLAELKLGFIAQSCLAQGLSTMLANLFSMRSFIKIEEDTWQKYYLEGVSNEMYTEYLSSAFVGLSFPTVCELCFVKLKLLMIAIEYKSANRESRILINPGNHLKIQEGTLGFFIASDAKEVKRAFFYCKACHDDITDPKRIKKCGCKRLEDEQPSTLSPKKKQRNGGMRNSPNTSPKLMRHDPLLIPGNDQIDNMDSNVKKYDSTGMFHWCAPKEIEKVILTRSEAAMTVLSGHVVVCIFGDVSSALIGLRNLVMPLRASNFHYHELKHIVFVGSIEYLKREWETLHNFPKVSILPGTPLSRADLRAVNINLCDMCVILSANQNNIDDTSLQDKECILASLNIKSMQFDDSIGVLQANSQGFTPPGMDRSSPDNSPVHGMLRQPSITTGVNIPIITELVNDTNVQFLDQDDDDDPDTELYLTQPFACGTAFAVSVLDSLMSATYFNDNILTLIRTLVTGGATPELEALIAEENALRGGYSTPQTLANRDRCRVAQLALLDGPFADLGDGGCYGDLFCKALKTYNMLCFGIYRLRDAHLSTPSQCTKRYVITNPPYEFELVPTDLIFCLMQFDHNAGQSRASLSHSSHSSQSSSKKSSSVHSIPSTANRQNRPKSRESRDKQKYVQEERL
Procedure: HEK293 cells (ATCC, Manassas, VA) were grown according to standard procedures. Cells were cultured at 37 °C in a 5% CO2 atmosphere in Dulbecco’s modified Eagle’s medium with L-glutamine, sodium pyruvate and 10% fetal bovine serum (Invitrogen). Cell lines were split with trypsin/EDTA in Hanks’ balanced salt solution (Invitrogen) up to 25–30 cycles. For phage display, stable lines stably expressed rSK2 or hBKα ZERO isoform. Cells were transfected (Lipofectamine 2000, Invitrogen) with hGlyRα1 and used 48 hours later. For electrophysiological recordings, cells were transfected with hBKα ZERO isoform. Enhanced green fluorescent protein (EGFP) was cotransfected as a marker. Electrophysiological recordings were made 16–72 h after transfection. Although the profile of BK channel composition varies from tissue to tissue, the ZERO BK channel splice variant is widely expressed, particularly in the nervous system, serving as a representative form for studying the modulation of BK channel gating.
Voltage-clamp recordings were performed at room temperature (22–24 °C) using an inside-out configuration on patches pulled from HEK293 cells. The extracellular solution contained the following (in mM): 2 KCl, 136 KOH, 20 HEPES, 2 MgCl2, adjusted to pH 7.2 with MeSO3H. In order to apply peptide to the extracellular surface, patch electrodes (7–20 MΩ in resistance) were tip-filled with normal extracellular solution and backfilled with extracellular solution containing LS3. Enough normal extracellular solution was included to provide at least five minutes of peptide-free recording (determined by plotting Po vs. time). The intracellular solution (in the bath) contained the following (in mM): 6 KCl, 132 KOH, 20 HEPES, adjusted to pH 7.2 with MeSO3H. To achieve 750 nM free Ca^2+, […] and 5 mM EGTA were included, a ratio verified by measurement with a Ca^2+-sensitive electrode. Voltage-clamp recordings made with an Axopatch 200 A amplifier and custom macros in IgorPro. Analysis was performed with QUB (http://www.qub.buffalo.edu), including Po, mean open time and three component exponential fits to closed dwell times. Group means±SEM for post-peptide measures were plotted relative to pre-peptide values and compared with pre values via planned paired t-tests.

[7] = target: T2, human BKα channel (ZERO isoform) (human) (UniProt O95259)
T2 sequence: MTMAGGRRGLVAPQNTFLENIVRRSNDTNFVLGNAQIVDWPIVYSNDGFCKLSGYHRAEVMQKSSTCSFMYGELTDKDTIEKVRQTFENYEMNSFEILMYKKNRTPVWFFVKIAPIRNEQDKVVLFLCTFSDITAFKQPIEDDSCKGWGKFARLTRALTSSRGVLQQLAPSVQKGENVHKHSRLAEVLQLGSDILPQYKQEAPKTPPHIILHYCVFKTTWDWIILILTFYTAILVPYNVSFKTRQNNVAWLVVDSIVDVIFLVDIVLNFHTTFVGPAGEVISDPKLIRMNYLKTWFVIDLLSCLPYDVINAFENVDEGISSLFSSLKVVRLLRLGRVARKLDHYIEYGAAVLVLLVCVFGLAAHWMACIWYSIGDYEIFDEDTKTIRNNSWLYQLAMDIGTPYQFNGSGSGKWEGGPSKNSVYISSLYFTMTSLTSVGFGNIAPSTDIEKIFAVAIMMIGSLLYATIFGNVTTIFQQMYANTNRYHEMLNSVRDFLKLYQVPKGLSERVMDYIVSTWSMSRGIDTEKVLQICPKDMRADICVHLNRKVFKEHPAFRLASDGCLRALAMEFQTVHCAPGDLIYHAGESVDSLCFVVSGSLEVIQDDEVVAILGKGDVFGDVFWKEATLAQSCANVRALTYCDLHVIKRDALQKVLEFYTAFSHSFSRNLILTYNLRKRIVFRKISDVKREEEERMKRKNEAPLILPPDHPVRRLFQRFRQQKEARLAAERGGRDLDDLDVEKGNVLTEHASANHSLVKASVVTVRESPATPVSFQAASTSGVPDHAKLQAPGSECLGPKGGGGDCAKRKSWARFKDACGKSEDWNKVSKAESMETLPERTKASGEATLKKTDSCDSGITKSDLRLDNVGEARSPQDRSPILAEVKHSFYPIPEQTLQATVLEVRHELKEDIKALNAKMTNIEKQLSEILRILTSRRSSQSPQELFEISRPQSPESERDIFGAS

[8] = target: comprehensive panel of mammalian CNS-based proteins; assay: radioligand binding; competition binding assays (NIMH PDSP): 10 microM LS3 against known radioligands for 33 targets; percent inhibition measured 4 times for each receptor; less than 50% inhibition considered insignificant

CC(C)(O)[C@H]1O[C@H]2CC[C@@]3(C)[C@@](O)(CC[C@H]4Cc5c([nH]c6ccccc56)[C@@]43C)C2=CC1=O [paxilline, reference compound]
IC50 (BK channel block) [1]: low nanomolar | ability to cross the BBB [2]: can cross the BBB | time course of suppression of sound evoked activity ([3]; 1 μL of 10 μM paxilline, 51 units, F(12,430) = 4.146 P < 0.0001): suppression of sound evoked activity increasing out to 6 hours | reduction in sound driven activity ([3]; 1 μL of 10 μM paxilline, 5 hours post-application, N = 5 mice): 87% | reduction of maximum spike counts ([3]; 1 μL of 10 μM paxilline, within 30 minutes, 51 units): 50% | maximum spike counts ([3]; 1 μL of 10 μM paxilline, within 30 minutes, baseline 375, 51 units): 180 spikes | reduction of sound evoked driven activity within the RF ([3]; 1 μL of 10 μM stock, from baseline pre-peptide, Fig. 5A,B representative eRFs): approximately 50% | mean ABR thresholds ([4]; 4 hours post I.P. injection vs. baseline, tone bursts): No significant effect | ABR peak 1 (P1) amplitude by intensity functions ([4]; systemic (I.P.) injection, 4 hrs vs. baseline, auditory nerve): Neither BK channel modulator reduced auditory nerve (P1) | ABR peak 4 (P4) amplitude by intensity functions ([4]; systemic (I.P.) injection, 4 hrs vs. baseline, generators caudal to the IC (brainstem)): Neither BK channel modulator reduced auditory nerve (P1) or brainstem (P4) amplitudes

apamin: a small Kv toxin at 18 aa (CNCKAPETALCARRCQQH-NH2; disulfide 1-11, 3-15; ends not checked; UniProt P01500 28-45, looked up)
CNS availability ([5]; in contrast to many ion channel-targeted peptides): higher CNS availability | effect on learning and memory-related behaviors ([5]; intraperitoneal injection at a similar concentration used in this paper): alter learning and memory-related behaviors

dendrotoxin
LD50, intraventricular injection, relative to peripheral [5]: ten thousand fold lower | LD50, peripherally administered [5]: tens

linearized version of LS3: linearized version of LS3 without the disulfide bridge (CRRGLVQVC)
effect on Po (post vs. pre peptide) [6]: no significant reduction in Po at any voltage | effect on Po (post vs. pre peptide) ([6]; listed as linear peptide): lack of effect | effect on Po (post vs. pre peptide) ([6]; listed as reduced form of LS3): did not alter Po | potency relative to cyclic LS3 ([6]; linearized version without the disulfide bridge, Po): less potent

B1: LS3 (… with a 1–9 disulfide bridge) (peptide)
peptide: CRRGLVQVC
modifications: disulfide 1-9
post-peptide Po relative to pre-peptide Po at 40 mV, 500 nM LS3 [7]: 0.54 | Ki [8]: > 10 µM | percent inhibition of radioligand binding at 10 microM LS3 [8]: < 50%
